Laboratory results: patent US12215363B2, “Balanced indels” (Keygene N.V., priority 2017, dated 2025)

Key:
tomato protoplasts = assay: Recovery of chlorsulfuron resistant calli after transfection of tomato protoplasts; assay type: cell-based, Solanum lycopersicon var Moneyberg; conditions: ALS1/ALS2 alleles sequenced from chlorsulfuron resistant calli versus alleles seen only in protoplast sequence data
Experimental: (§1) For the protoplast transfections 10 μg of KG9387 and 20 μg of one of the sgRNA expressing plasmids (KG10177, KG10190, KG10191, KG10240) mixed with 500 μL (500000 protoplasts) of the protoplast suspension and 500 μL of PEG solution (400 g/l poly(ethylene glycol) 4000, Sigma-Aldrich #81240; 0.1M Ca(NO3)2) was then added and the transfection was allowed to take place for 20 minutes at room temperature. Control samples were also produced by omitting one or both of the plasmids from the transfection. Then, 10 mL of 0.275 M Ca(NO3)2 solution was added and thoroughly, but gently mixed in. The protoplasts were harvested by centrifugation for 5 minutes at 800 rpm and resuspended in 9M culture medium at a density of 0.5×10^6 per ml and transferred to a 4 cm diameter petri dish and an equal volume of 2% alginate solution (20 g/l Alginate-Na (Sigma-Aldrich #A0682), 0.14 g/l CaCl2.2H2O, 90 g/l mannitol) was added. […]
(§2) Total genomic DNA was isolated from tomato protoplasts (48 hrs post transfection) using the DNeasy Plant Mini Kit (Qiagen). […] After sequencing the reads derived from each sample were processed to identify the number and types of sequence changes present at the target site. […]

[1] = tested on: ALS1/ALS2 target sequence; assay: Indel formation at the ALS1/ALS2 target sites in transfected tomato protoplasts (amplicon sequencing, MiSeq); assay type: cell-based, Solanum lycopersicon var Moneyberg; conditions: genomic DNA 48 hours after transfection
Experimental: as §1, §2

GQVPGGLMIGT: ALS amino acid change from other pairs of indels in the sequence data, not recovered in resistant calli
Chlorsulfuron resistance phenotype of the altered ALS allele (in words) (tomato protoplasts): not resistance alleles

GRRGGLIGT: ALS amino acid change from other pairs of indels in the sequence data, not recovered in resistant calli
Chlorsulfuron resistance phenotype of the altered ALS allele (in words) (tomato protoplasts): not resistance alleles

B1: KG10240: cassette (SEQ ID NO. 28) expressing all sgRNAs of KG10177, KG10190 and KG10191 separated by tRNA sequences (nucleic acid)
DNA: GGAGTGATCAAAAGTCCCACATCGATCAGGTGATATATAGCAGCTTAGTTTATATAATGATAGAGTCGACATAGCGATTGAACAAAGCACCAGTGGTCTAGTGGTAGAATAGTACCCTGCCACGGTACAGACCCGGGTTCGATTCCCGGCTGGTGCACAAGTGCCGAGGAGGATGATGTTTTAGAGCTAGAAATAGCAAGTTAAAATAAGGCTAGTCCGTTATCAACTTGAAAAAGTGGCACCGAGTCGGTGCAACAAAGCACCAGTGGTCTAGTGGTAGAATAGTACCCTGCCACGGTACAGACCCGGGTTCGATTCCCGGCTGGTGCACATCCTCCTCGGCACTTGACGTTTTAGAGCTAGAAATAGCAAGTTAAAATAAGGCTAGTCCGTTATCAACTTGAAAAAGTGGCACCGAGTCGGTGCAACAAAGCACCAGTGGTCTAGTGGTAGAATAGTACCCTGCCACGGTACAGACCCGGGTTCGATTCCCGGCTGGTGCATTACCGGTCAAGTGCCGAGGGTTTTAGAGCTAGAAATAGCAAGTTAAAATAAGGCTAGTCCGTTATCAACTTGAAAAAGTGGCACCGAGTCGGTGCTTTTTTTCTAGACCCAGCTTTCTTGTACAAAGTTGGCATTACGCT
modifications: KG10240
Sequence reads with indels at ALS1 and ALS2 target sites (in words) [1]: resulted in reads that contained more than one indel
